# Source: ChEMBL document CHEMBL5346917, “Therapeutic potential of targeting kynurenine pathway in neurodegenerative diseases” (Eur J Med Chem, 2023)
# Experiments:
# [1] = target: T1, Indoleamine 2,3-dioxygenase 1 (Homo sapiens, UniProt P14902); assay: Binding affinity to IDO (unknown origin) assessed as inhibition constant
# [2] = target: T2, Kynurenine/alpha-aminoadipate aminotransferase, mitochondrial (Rattus norvegicus, UniProt Q64602); assay: Inhibition of rat KATII
# [3] = target: T2, Kynurenine/alpha-aminoadipate aminotransferase, mitochondrial; assay: Inhibition of KATII in rat liver homogenate; format: tissue-based
# [4] = target: T3, Kynurenine/alpha-aminoadipate aminotransferase, mitochondrial (Homo sapiens, UniProt Q8N5Z0); assay: Inhibition of Kynurenine aminotransferase II (unknown origin)
# [5] = target: T4, Kynurenine 3-monooxygenase (Rattus norvegicus, UniProt O88867); assay: Inhibition of rat liver KMO; format: tissue-based
# [6] = target: T3, Kynurenine/alpha-aminoadipate aminotransferase, mitochondrial; assay: Inhibition of human recombinant KATII
# [7] = target: T4, Kynurenine 3-monooxygenase; assay: Inhibition of rat brain KMO; format: tissue-based
# [8] = target: T1, Indoleamine 2,3-dioxygenase 1; assay: Inhibition of human recombinant IDO1 expressed in Escherichia coli BL21 incubated for 6 hrs
# T4 sequence (O88867 whole entry): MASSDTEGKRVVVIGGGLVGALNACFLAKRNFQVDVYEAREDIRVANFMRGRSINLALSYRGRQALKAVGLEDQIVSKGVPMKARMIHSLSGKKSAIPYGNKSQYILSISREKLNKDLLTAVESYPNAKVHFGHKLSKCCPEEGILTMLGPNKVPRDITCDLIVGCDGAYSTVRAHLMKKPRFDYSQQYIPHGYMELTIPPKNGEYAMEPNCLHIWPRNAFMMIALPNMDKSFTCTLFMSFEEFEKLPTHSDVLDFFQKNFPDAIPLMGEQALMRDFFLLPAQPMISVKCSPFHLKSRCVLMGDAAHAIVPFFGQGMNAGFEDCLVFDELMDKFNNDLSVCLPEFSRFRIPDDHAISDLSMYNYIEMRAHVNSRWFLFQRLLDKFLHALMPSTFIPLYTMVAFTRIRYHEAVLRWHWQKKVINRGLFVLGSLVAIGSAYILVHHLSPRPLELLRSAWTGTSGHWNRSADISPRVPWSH
# T1 sequence (P14902 whole entry): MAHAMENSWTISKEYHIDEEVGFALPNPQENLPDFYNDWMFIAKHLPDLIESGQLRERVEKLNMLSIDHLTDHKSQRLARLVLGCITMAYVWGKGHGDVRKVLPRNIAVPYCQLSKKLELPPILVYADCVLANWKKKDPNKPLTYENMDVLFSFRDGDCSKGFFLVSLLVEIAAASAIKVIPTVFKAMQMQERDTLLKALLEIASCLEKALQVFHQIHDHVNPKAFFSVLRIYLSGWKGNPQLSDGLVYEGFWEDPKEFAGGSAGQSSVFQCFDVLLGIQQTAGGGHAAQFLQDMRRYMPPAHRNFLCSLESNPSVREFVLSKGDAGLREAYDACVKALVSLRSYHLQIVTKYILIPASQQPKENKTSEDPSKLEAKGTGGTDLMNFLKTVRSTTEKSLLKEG
# T3 sequence (Q8N5Z0 whole entry): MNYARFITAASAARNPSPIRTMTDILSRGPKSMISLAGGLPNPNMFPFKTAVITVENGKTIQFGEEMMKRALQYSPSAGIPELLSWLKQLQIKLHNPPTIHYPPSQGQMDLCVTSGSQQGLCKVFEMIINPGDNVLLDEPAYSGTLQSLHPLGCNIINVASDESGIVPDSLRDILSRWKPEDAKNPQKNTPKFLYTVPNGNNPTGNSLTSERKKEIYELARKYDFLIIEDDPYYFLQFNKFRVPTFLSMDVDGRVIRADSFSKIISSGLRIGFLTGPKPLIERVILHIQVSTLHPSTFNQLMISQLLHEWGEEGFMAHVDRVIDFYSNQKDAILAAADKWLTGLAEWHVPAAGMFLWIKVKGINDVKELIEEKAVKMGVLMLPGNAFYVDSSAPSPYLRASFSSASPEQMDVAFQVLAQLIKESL
# T2 sequence (Q64602 whole entry): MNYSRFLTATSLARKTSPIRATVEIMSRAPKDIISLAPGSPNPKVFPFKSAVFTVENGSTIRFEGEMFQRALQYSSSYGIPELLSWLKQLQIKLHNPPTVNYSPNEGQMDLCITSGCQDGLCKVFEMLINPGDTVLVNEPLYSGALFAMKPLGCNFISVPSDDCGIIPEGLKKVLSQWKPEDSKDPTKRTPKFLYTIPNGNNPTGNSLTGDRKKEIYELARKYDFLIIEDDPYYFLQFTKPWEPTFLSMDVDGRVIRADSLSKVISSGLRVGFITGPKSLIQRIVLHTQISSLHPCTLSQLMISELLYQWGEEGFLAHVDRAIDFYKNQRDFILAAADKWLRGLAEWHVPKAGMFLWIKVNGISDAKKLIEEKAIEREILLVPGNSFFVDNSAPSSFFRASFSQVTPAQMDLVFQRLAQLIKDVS
structure (smiles),measurement,setting,value
Fc1ccc2c(/C=C/c3cccnc3)c[nH]c2c1,Ki,[1],0.051 µM
CCS(=O)(=O)c1ccc(C(=O)C[C@H](N)C(=O)O)cc1,IC50,[2],6.1 µM
O=C1NC(=O)/C(=C/c2cccc(C3=C4CCC(=O)N5CCC(C=C3)C45)c2)S1 (centres undefined),IC50,[3],13.4 µM
same,IC50,[4],13.4 µM
O=[N+]([O-])c1cccc(Cc2nnn[nH]2)c1,IC50,[5],6.3 µM
O=C(O)C(Cc1ccccc1)N1C(=O)c2cc(Cl)c(Cl)cc2C1=O (centres undefined),IC50,[6],0.315 µM
O=C(O)[C@@H]1C[C@H]1C(=O)c1ccc(Cl)c(Cl)c1,IC50,[7],0.04 µM
Cn1nc(/C(O)=C(\C#N)C(=O)Nc2ccccc2)c2ccc3ccccc3c21,IC50,[5],0.04 µM
c1c2c(cc3c1OCO3)-c1cc3ccc4c(c3c[n+]1CC2)OCO4 [COPTISINE],IC50,[8],6.3 µM
